# According to US7183383B2, “Uses of collagen IV” (The University of Arkansas for Medical Sciences, priority 2002, dated 2007):
# Columns and labels:
# Type in all cases: cell-based, rabbit
# [1] = test system: renal proximal tubular cells; assay: Cell density (monolayer protein content) in DCVC-injured RPTC
# Protocol: Rabbit renal proximal tubules were isolated using the iron oxide perfusion method and grown in 35-mm tissue culture dishes or 48-well cell culture clusters under improved conditions as previously described (35, 36). The cell culture medium was a 1:1 mixture of DMEM/Ham's F-12 (without D-glucose, phenol red, or sodium pyruvate) supplemented with 15 mM HEPES buffer, 2.5 mM L-glutamine, 1 μM pyridoxine HCl, 15 mM sodium bicarbonate, and 6 mM lactate. Hydrocortisone (50 nM), selenium (5 ng/ml), human transferrin (5 μg/ml), bovine insulin (10 nM), and L-ascorbic acid-2-phosphate (50 μM or 500 μM) were added to fresh culture medium immediately prior to daily media change. L-Ascorbic acid-2-phosphate (AscP) was used due to the fact that L-ascorbic acid is unstable in culture media. AscP is stable in culture media for ≧7 days at 37° C. and, after intracellular dephosphorylation, has the same effect on cultured cells as L-ascorbic acid (13).
# (§1) Confluent monolayers of renal proximal tubular cells (day 6 after seeding) were exposed to 200 μM S-(1,2-dichlorovinyl)-L-cysteine (dissolved in water) for 1.75 hours followed by toxicant removal and addition of fresh culture media. This method produces approximately 50% cell death and loss 24 hours after the exposure. On days 1, 4, and 6 following S-(1,2-dichlorovinyl)-L-cysteine exposure, the ability of the remaining renal proximal tubular cells to regenerate and repair physiological function was monitored as described below. In some experiments, immediately after S-(1,2-dichlorovinyl)-L-cysteine exposure and after daily media change through day 6 after injury, collagen I (0, 5, 15, or 50 μg/ml), collagen IV (0, 5, 15, or 50 μg/ml), laminin (50 μg/ml), or cellular fibronectin (50 μg/ml) was added to the culture media of uninjured and S-(1,2-dichlorovinyl)-L-cysteine-injured renal proximal tubular cells grown in physiological concentrations of AscP. Exogenous collagens I and IV used in this study were triple helical and contained only α1 and α2 chains in conformations similar to those found in the renal basement membrane (3, 25). Laminin was a mixture of biologically active laminin chains found in most epithelial tissues (8, 50) and cellular fibronectin was composed of functional dimers (51).
# Measurement of monolayer protein content over time was used to estimate cell density. On days 1, 4, and 6 after sublethal S-(1,2-dichlorovinyl)-L-cysteine injury, renal proximal tubular cell monolayers were washed with PBS and solubilized in Triton buffer (0.05% Triton X-100, 100 mM Tris-Base, 150 mM NaCl, pH 7.5). Samples were sonicated and protein concentrations determined using the method of Lowry (26) or the bicinchoninic acid microassay according to the manufacturer's instructions (Pierce, Rockford, Ill.).
# [2] = test system: renal proximal tubular cells; assay: Basal oxygen consumption (QO2), a measure of mitochondrial function; details: for repair of basal QO2: day 6 after DCVC injury
# Protocol: as §1
# On days 1, 4, and 6 after sublethal S-(1,2-dichlorovinyl)L-cysteine injury, renal proximal tubular cells bathed in 37° C. culture medium were gently detached from culture dishes with a rubber policeman and transferred to a 37° C. oxygen consumption (QO2) chamber. Basal renal proximal tubular cells QO2 was measured polarographically using a Clark-type electrode as described previously (36).
# [3] = test system: collagen-binding integrin subunits α1, α2, and β1; assay: Expression of collagen-binding integrins by flow cytometry; details: for expression of CBI subunits α1, α2, or β1 in sublethally injured RPTC: DCVC-injured RPTC; for expression of CBI subunits α1, α2, or β1 in sublethally injured RPTC / collagen-binding integrin α1, α2, and β1 expression in uninjured RPTC: AscP 500 μM or collagen IV 50 μg/ml
# Protocol: CBI expression was measured by flow cytometry of renal proximal tubular cells immunostained with monoclonal antibodies to integrin subunits α1, α2, and β1. Renal proximal tubular cell monolayers were washed 3 times with ice-cold PBS, gently scraped from culture dishes into cell culture media containing 5% BSA (BSA/media), and transferred to microcentrifuge tubes. Renal proximal tubular cells were dissociated by pipeting, incubated on ice with moderate shaking for 20 minutes, centrifuged, and resuspended in 1% BSA/media containing 2 μg/ml of a specific anti-integrin antibody or non-specific IgG on ice with moderate shaking for 1 hour. After 3 washes with 1% BSA/media, renal proximal tubular cells were incubated for 30 minutes in the dark with a goat-anti mouse FITC-conjugated IgG diluted 1:100 in 1% BSA/media, followed by 3 washes with ice-cold PBS. Membrane expression of collagen-binding integrins was determined immediately by flow cytometry using a FACSCalibur four-color cell sorter/analyzer (Beckton Dickinson, San Jose, Calif.) with a blue argon laser for detection of FITC. Specific binding was calculated as total fluorescence minus that in IgG controls.
# [4] = test system: collagen-binding integrin subunits α1, α2, and β1; assay: Subcellular localization of CBIs by confocal microscopy; details: for CBIs on the apical membrane of injured RPTC: by day 6 after DCVC; for CBIs on the apical membrane of injured RPTC / basal localization of CBI subunits α1, α2, and β1 in injured RPTC: pharmacological AscP or exogenous collagen IV
# Protocol: Collagen-binding integrin localization was determined using confocal microscopy of renal proximal tubular cell monolayers stained with monoclonal antibodies to integrin subunits α1, α2, and β1. Renal proximal tubular cell monolayers were washed 3 times with PBS and fixed with 10% buffered formalin (4% formaldehyde) for 20 minutes at room temperature. After 3 washes with PBS, monolayers were permeabilized in PTB buffer (PBS+0.3% Triton X-100+0.1% BSA) for 10 minutes at room temperature. Monolayers were washed 3 times with 0.1% BSA in PBS and incubated with 8% BSA in PBS for 30 minutes at room temperature. BSA (1%) in PBS containing 5 μg/ml of specific integrin antibodies or non-specific IgG was added to renal proximal tubular cell monolayers and incubated overnight a t 4° C. with moderate shaking. Following 3 washes with PTB buffer, monolayers were incubated for 2 hours in the dark at room temperature with 1% BSA in PBS containing a 1:100 dilution of a FITC-conjugated goat anti-mouse IgG. Monolayers were washed 3 times with PTB, and glass coverslips were applied after the addition of 2–3 drops of mounting media. Confocal microscopy was performed using a Zeiss confocal laser scanning microscope (Model 410, Carl Zeiss, Inc., Thornwood, N.Y.). Basal and apical membrane locations were determined visually in the Z-plane using light field microscopy. Two to three photomicrographs per monolayer at the basal and apical membranes were then scanned with an omnichrome laser filtered at 488 nm to detect FITC.
# [5] = day 1 after DCVC injury, in presence of exogenous protein
# [6] = uninjured RPTC, days 1 or 6, exogenous protein
molecule,measurement,setting,value
"O=C1O[C@H]([C@@H](O)CO)C(O)=C1OP(=O)(O)O [L-ascorbic acid-2-phosphate, L-Ascorbic acid-2-phosphate]",monolayer protein content,"[1]; 4 days after DCVC, 50 μM or 500 μM AscP",remained at day 1 levels
same,monolayer protein content greater than that of DCVC-treated RPTC grown in 50 μM AscP,"[1]; 6 days after DCVC, 500 μM AscP",34%
same,cell death and loss (decrease in monolayer protein content),"[1]; day 1 after DCVC, RPTC cultured in 500 μM AscP",55%
same,"monolayer protein content, untreated RPTC, 50 μM vs 500 μM","[1]; uninjured RPTC, any time point",no significant differences
same,QO2,"[2]; day 4 after DCVC, 50 μM or 500 μM AscP",remained at day 1 levels
same,QO2 higher than in RPTC grown in 50 μM AscP,"[2]; day 6 after DCVC, 500 μM AscP",49%
same,QO2 relative to controls,"[2]; day 6 after DCVC, 500 μM AscP",equal to that of controls
same,"basal QO2, untreated RPTC, 50 μM vs 500 μM",[2]; uninjured RPTC,equivalent at all time points
same,"expression of CBI subunits α1, α2, or β1 in sublethally injured RPTC",[3],did not affect
same,"collagen-binding integrin α1, α2, and β1 expression in uninjured RPTC",[3],did not affect
same,CBIs on the apical membrane of injured RPTC,[4],complete disappearance
same,"basal localization of CBI subunits α1, α2, and β1 in injured RPTC",[4]; day 6 after DCVC,return to control levels
"N[C@@H](CSC(Cl)=CCl)C(=O)O [S-(1,2-dichlorovinyl)-L-cysteine]",cell death and loss,"[1]; 200 μM for 1.75 hours, 24 hours after the exposure",approximately 50%
same,decrease in monolayer protein content compared to control,"[1]; day 1 after DCVC (200 μM), RPTC cultured in 50 μM AscP",56%
same,decrease in QO2,"[2]; one day after DCVC (200 μM), both 50 μM and 500 μM AscP",approximately 50%
same,"expression of CBI subunits α1, α2, and β1 compared to controls",[3]; day 1 after DCVC,unchanged
same,expression of CBI subunits α1 and β1 compared to controls,[3]; day 6 after DCVC,unchanged
same,"apical membrane distribution of CBI subunits α1, α2, and β1",[4]; day 1 after DCVC injury,partially redistributed to the apical membrane
same,"CBI α1, α2, and β1 staining at the basal membrane",[4]; day 1 following DCVC,decreased compared to controls
same,apical membrane distribution of CBIs,[4]; day 6 after DCVC injury,continued to exhibit CBI is distributed to the apical membrane
same,"basal localization of CBI subunits α1, α2, and β1","[4]; day 6 after DCVC, absence of pharmacological AscP or collagen IV",still decreased compared to sub-confluent controls
"collagen IV: Human placenta collagen IV (Sigma); triple helical, containing only α1 and α2 chains",decrease in monolayer cell density,[1]; [5],approximately 50%
same,monolayer protein content in injured RPTC,"[1]; day 1 or day 6 after DCVC, 50 μg/ml",no change
same,cell density as percent of that of uninjured RPTC,"[1]; day 6 after DCVC injury, in presence of exogenous protein",approximately 50%
same,monolayer cell density in untreated RPTC,[1]; [6],no effect
same,decrease in basal QO2,[2]; [5],approximately 50%
same,repair of basal QO2,[2]; 50 μg/ml,complete repair
same,repair of basal QO2,"[2]; 5, 15, 50 μg/ml",recovered basal QO2
same,basal QO2 in untreated RPTC,[2]; [6],no effect
same,"expression of CBI subunits α1, α2, or β1 in sublethally injured RPTC",[3],did not affect
same,"collagen-binding integrin α1, α2, and β1 expression in uninjured RPTC",[3],did not affect
same,CBIs on the apical membrane of injured RPTC,[4],complete disappearance
same,"basal localization of CBI subunits α1, α2, and β1 in injured RPTC",[4]; day 6 after DCVC,return to control levels
